Source: PMC3147153 (Clinical cancer research : an official journal of the …, 2009)
Read-outs that look alike come from different tables or passages of the source.

Tests used:
CYP3A4 = settings: in vitro; ref studies done by Ariad Pharmaceuticals; cited from earlier work
[1] = Whole blood pharmacokinetics, LC-MS/MS, noncompartmental analysis; format: in vivo, patients; settings: for half-life / AUC / Cmax / Vd / clearance: human, whole blood
[2] = system: 4E-BP1 phosphorylated at Ser^65/Thr^70; assay: 4E-BP1 phosphorylation in peripheral blood mononuclear cells; format: in vivo, patients; settings: PBMC, 7 days after infusion, all doses
[3] = system: target lesions (solid tumors); assay: Tumor response by Response Evaluation Criteria in Solid Tumors; format: in vivo, patients
Laboratory variables = format: in vivo; settings: patients who received at least three doses; 95% CI −22.1 to −2.6
[4] = in vivo
[5] = i.v. daily for 5 days every 2 weeks; ref 14 (Mita et al.); cited from earlier work
human tumor cell lines = settings: cited from earlier work
xenografts = settings: cited from earlier work
CYP3A5 = settings: in vitro; ref studies done by Ariad Pharmaceuticals; cited from earlier work
[6] = two multiple-dose toxicology studies in rats; ref nonclinical studies; cited from earlier work
[7] = Phase I dose escalation: safety, tolerability, MTD, DLT and adverse events
[8] = dose level 6.25 mg, 2 patients entered
[9] = dose level 12.5 mg, 3 patients entered
[10] = dose level 25 mg, 4 patients entered
[11] = dose level 50 mg, 16 patients entered
[12] = dose level 75 mg, 17 patients entered
[13] = dose level 100 mg, 4 patients entered

SMILES: CO[C@H]1C[C@@H]2CC[C@@H](C)[C@@](O)(O2)C(=O)C(=O)N2CCCC[C@H]2C(=O)O[C@H]([C@H](C)C[C@@H]2CC[C@@H](O)[C@H](OC)C2)CC(=O)[C@H](C)/C=C(\C)[C@@H](O)[C@@H](OC)C(=O)[C@H](C)C[C@H](C)/C=C/C=C/C=C/1C [sirolimus, reference compound]
- metabolism by CYP3A4 (CYP3A4): primarily metabolized by CYP3A4

SMILES: CO[C@H]1C[C@@H]2CC[C@@H](C)[C@@](O)(O2)C(=O)C(=O)N2CCCC[C@H]2C(=O)O[C@H]([C@H](C)C[C@@H]2CC[C@@H](OP(C)(C)=O)[C@H](OC)C2)CC(=O)[C@H](C)/C=C(\C)[C@@H](O)[C@@H](OC)C(=O)[C@H](C)C[C@H](C)/C=C/C=C/C=C/1C [deforolimus]
- dose proportionality of AUC ([1]; dose range 6.25 to 100 mg): increased less than proportionally with an increase in dose
- dose proportionality of Cmax ([1]; dose range 6.25 to 100 mg): increased less than proportionally with an increase in dose
- half-life ([1]; intravenous): 45 to 52 h
- AUC ([1]; iv, 6.25 mg): 3800 ng·h/mL
- Cmax ([1]; iv, 6.25 mg): 329 ng/mL
- Vd ([1]; iv, 6.25 mg): 80.3 L
- clearance ([1]; iv, 6.25 mg): 28.3 mL/min
- half-life ([1]; iv, 6.25 mg): 52.2 h
- AUC ([1]; iv, 12.5 mg): 5100 ng·h/mL
- Cmax ([1]; iv, 12.5 mg): 394 ng/mL
- Vd ([1]; iv, 12.5 mg): 111 L
- clearance ([1]; iv, 12.5 mg): 45 mL/min
- AUC ([1]; iv, 25 mg): 9000 ng·h/mL
- Cmax ([1]; iv, 25 mg): 570 ng/mL
- Vd ([1]; iv, 25 mg): 136 L
- clearance ([1]; iv, 25 mg): 48.3 mL/min
- half-life ([1]; iv, 25 mg): 46.2 h
- AUC ([1]; iv, 50 mg): 10700 ng·h/mL
- Cmax ([1]; iv, 50 mg): 982 ng/mL
- Vd ([1]; iv, 50 mg): 235 L
- clearance ([1]; iv, 50 mg): 81.7 mL/min
- half-life ([1]; iv, 50 mg): 44.9 h
- AUC ([1]; iv, 75 mg): 12700 ng·h/mL
- Cmax ([1]; iv, 75 mg): 1200 ng/mL
- Vd ([1]; iv, 75 mg): 323 L
- clearance ([1]; iv, 75 mg): 107 mL/min
- half-life ([1]; iv, 75 mg): 47.3 h
- AUC ([1]; iv, 100 mg): 13400 ng·h/mL
- Cmax ([1]; iv, 100 mg): 1260 ng/mL
- Vd ([1]; iv, 100 mg): 373 L
- clearance ([1]; iv, 100 mg): 128 mL/min
- half-life ([1]; iv, 100 mg): 46 h
- clearance difference, greater in females, estimated from the model ([1]; regression model with dose and gender, SE 0.41): 1.49 L/h
- median inhibition of 4E-BP1 phosphorylation [2]: > 70%
- patients with disease progression ([3]; 34 evaluable, after two cycles): 12 patients
- patients with stable disease ([3]; 34 evaluable, after two cycles): 21 patients
- patients with partial response ([3]; 34 patients evaluable for response): 1 patient
- correlation r, AUC versus percent change in sum of target lesions ([3]; after two cycles, n = 32, P = 0.015): −0.43
- correlation r, dose versus percent change in sum of target lesions ([3]; after two cycles, n = 33, P = 0.28): −0.19
- shrinkage in target lesions ([3]; one patient with transitional cell carcinoma of the bladder, after two cycles): 34%
- estimated slope of nadir platelet count versus dose (Laboratory variables): −12.3 × 10^3/μL per 10 mg increase i
- Abdominal pain, number of adverse events, any grade ([4]; human): 14
- Nausea, number of adverse events, any grade ([4]; human): 26
- Rash, number of adverse events, any grade ([4]; human): 22
- incidence of anorexia ([4]; human): 67%
- incidence of diarrhea ([4]; human): 50%
- incidence of fatigue ([4]; human): 76%
- incidence of mucositis ([4]; human): 63%
- incidence of nausea ([4]; human): 57%
- patients who experienced an adverse event ([4]; human): 46 patients
- tolerability of the dose level [4]: intolerable
- metabolism by CYP3A4 (CYP3A4): primarily metabolized by CYP3A4
- incidence of hypercholesterolemia [5]: 28%
- incidence of hyperglycemia [5]: 28%
- incidence of hypertriglyceridemia [5]: 41%
- effect on proliferation of human tumor cell lines (human tumor cell lines): inhibits proliferation
- effect on proliferation of xenografts (xenografts): inhibits proliferation
- metabolism by CYP3A5 (CYP3A5): to a lesser extent
- no effect dose level / severely toxic dose level [6]: neither a no effect dose level nor a severely toxic dose level was identified
- Abdominal pain, number of adverse events, any grade ([7]; 6.25 mg (n = 2)): 0
- Anemia, number of adverse events, any grade ([7]; 6.25 mg (n = 2)): 0
- Anorexia, number of adverse events, any grade ([7]; 6.25 mg (n = 2)): 2
- Constipation, number of adverse events, any grade ([7]; 6.25 mg (n = 2)): 1
- Cough, number of adverse events, any grade ([7]; 6.25 mg (n = 2)): 0
- Diarrhea, number of adverse events, any grade ([7]; 6.25 mg (n = 2)): 1
- Dysgeusia, number of adverse events, any grade ([7]; 6.25 mg (n = 2)): 1
- Fatigue, number of adverse events, any grade ([7]; 6.25 mg (n = 2)): 2
- Hyperglycemia, number of adverse events, any grade ([7]; 6.25 mg (n = 2)): 0
- Hypophosphatemia, number of adverse events, any grade ([7]; 6.25 mg (n = 2)): 0
- Mucosal inflammation, number of adverse events, any grade ([7]; 6.25 mg (n = 2)): 0
- Anemia, number of adverse events, any grade ([7]; 12.5 mg (n = 3)): 1
- Anorexia, number of adverse events, any grade ([7]; 12.5 mg (n = 3)): 2
- Constipation, number of adverse events, any grade ([7]; 12.5 mg (n = 3)): 2
- Cough, number of adverse events, any grade ([7]; 12.5 mg (n = 3)): 0
- Diarrhea, number of adverse events, any grade ([7]; 12.5 mg (n = 3)): 2
- Dysgeusia, number of adverse events, any grade ([7]; 12.5 mg (n = 3)): 0
- Fatigue, number of adverse events, any grade ([7]; 12.5 mg (n = 3)): 2
- Hyperglycemia, number of adverse events, any grade ([7]; 12.5 mg (n = 3)): 0
- Hypophosphatemia, number of adverse events, any grade ([7]; 12.5 mg (n = 3)): 0
- Mucosal inflammation, number of adverse events, any grade ([7]; 12.5 mg (n = 3)): 1
- Abdominal pain, number of adverse events, any grade ([7]; 25 mg (n = 4)): 0
- Anemia, number of adverse events, any grade ([7]; 25 mg (n = 4)): 1
- Anorexia, number of adverse events, any grade ([7]; 25 mg (n = 4)): 4
- Constipation, number of adverse events, any grade ([7]; 25 mg (n = 4)): 2
- Cough, number of adverse events, any grade ([7]; 25 mg (n = 4)): 0
- Diarrhea, number of adverse events, any grade ([7]; 25 mg (n = 4)): 2
- Dysgeusia, number of adverse events, any grade ([7]; 25 mg (n = 4)): 0
- Fatigue, number of adverse events, any grade ([7]; 25 mg (n = 4)): 3
- Hyperglycemia, number of adverse events, any grade ([7]; 25 mg (n = 4)): 0
- Hypophosphatemia, number of adverse events, any grade ([7]; 25 mg (n = 4)): 0
- Mucosal inflammation, number of adverse events, any grade ([7]; 25 mg (n = 4)): 1
- Anemia, number of adverse events grade 3 or 4 ([7]; 50 mg (n = 16)): 1
- Anemia, number of adverse events, any grade ([7]; 50 mg (n = 16)): 5
- Dysgeusia, number of adverse events, any grade ([7]; 50 mg (n = 16)): 3
- Hyperglycemia, number of adverse events grade 3 or 4 ([7]; 50 mg (n = 16)): 2
- Hyperglycemia, number of adverse events, any grade ([7]; 50 mg (n = 16)): 5
- Hypophosphatemia, number of adverse events grade 3 or 4 ([7]; 50 mg (n = 16)): 3
- Hypophosphatemia, number of adverse events, any grade ([7]; 50 mg (n = 16)): 4
- patients discontinued from the study due to adverse events ([7]; 50 mg dose level): 3 patients
- Abdominal pain, number of adverse events grade 3 or 4 ([7]; 75 mg (n = 17)): 1
- Abdominal pain, number of adverse events, any grade ([7]; 75 mg (n = 17)): 5
- Cough, number of adverse events, any grade ([7]; 75 mg (n = 17)): 3
- Hyperglycemia, number of adverse events grade 3 or 4 ([7]; 75 mg (n = 17)): 4
- Hyperglycemia, number of adverse events, any grade ([7]; 75 mg (n = 17)): 5
- Mucosal inflammation, number of adverse events, any grade ([7]; 75 mg (n = 17)): 12
- patients discontinued from the study due to adverse events ([7]; 75 mg dose level): 3 patients
- patients who developed grade 1 to 2 mucositis ([7]; 75 mg dose level (17 patients)): Twelve
- Abdominal pain, number of adverse events grade 3 or 4 ([7]; 100 mg (n = 4)): 1 (1)
- Abdominal pain, number of adverse events, any grade ([7]; 100 mg (n = 4)): 1 (1)
- Anemia, number of adverse events, any grade ([7]; 100 mg (n = 4)): 1
- Anorexia, number of adverse events, any grade ([7]; 100 mg (n = 4)): 3
- Constipation, number of adverse events, any grade ([7]; 100 mg (n = 4)): 3
- Cough, number of adverse events, any grade ([7]; 100 mg (n = 4)): 1
- Diarrhea, number of adverse events, any grade ([7]; 100 mg (n = 4)): 2
- Dysgeusia, number of adverse events, any grade ([7]; 100 mg (n = 4)): 1
- Fatigue, number of adverse events, any grade ([7]; 100 mg (n = 4)): 3
- Hyperglycemia, number of adverse events, any grade ([7]; 100 mg (n = 4)): 0
- Hypophosphatemia, number of adverse events grade 3 or 4 ([7]; 100 mg (n = 4)): 1 (1)
- Hypophosphatemia, number of adverse events, any grade ([7]; 100 mg (n = 4)): 1 (1)
- Mucosal inflammation, number of adverse events grade 3 or 4 ([7]; 100 mg (n = 4)): 1
- Mucosal inflammation, number of adverse events, any grade ([7]; 100 mg (n = 4)): 4
- patients who required dosing delays and/or dose reduction secondary to mucositis ([7]; 100 mg dose level): 3 of 4
- patients who experienced mucositis ([7]; 100 mg dose level (4 patients)): 4 patients
- patients with mucositis grade ≥3 ([7]; 100 mg dose level (4 patients)): 1 patients
- patients who experienced an adverse event grade ≥3 ([7]; all 46 patients): 70%
- patients who required interruption of treatment or dose reduction on at least one occasion ([7]; all 46 patients): Twenty-eight
- deaths thought to be related to deforolimus ([7]; all patients): no deaths thought to be related to deforolimus
- patients with serious adverse events ([7]; all patients): 22 patients
- serious adverse events ([7]; all patients): Thirty-two
- incidence of hypercholesterolemia ([7]; all patients, weekly schedule): 7%
- incidence of hyperglycemia ([7]; all patients, weekly schedule): 22%
- incidence of hypertriglyceridemia ([7]; all patients, weekly schedule): 9%
- No. patients requiring dose interruptions or reductions [7, 8]: 0
- No. patients requiring dose reductions [7, 8]: 0
- No. patients requiring dose interruptions or reductions, at least possibly related to deforolimus ([7]; dose level 12.5 mg): 0
- No. patients requiring dose interruptions or reductions [7, 9]: 2
- No. patients requiring dose reductions [7, 9]: 0
- No. patients requiring dose interruptions or reductions, at least possibly related to deforolimus ([7]; dose level 25 mg): 0
- No. patients requiring dose interruptions or reductions [7, 10]: 3
- No. patients requiring dose reductions [7, 10]: 0
- No. patients requiring dose interruptions or reductions, at least possibly related to deforolimus ([7]; dose level 50 mg): 5
- No. patients requiring dose interruptions or reductions [7, 11]: 8
- No. patients requiring dose reductions [7, 11]: 3
- No. patients requiring dose interruptions or reductions, at least possibly related to deforolimus ([7]; dose level 75 mg): 9
- No. patients requiring dose interruptions or reductions [7, 12]: 12
- No. patients requiring dose reductions [7, 12]: 2
- No. patients requiring dose interruptions or reductions, at least possibly related to deforolimus ([7]; dose level 100 mg): 3 (3)
- No. patients requiring dose interruptions or reductions [7, 13]: 3 (3)
- No. patients requiring dose reductions [7, 13]: 2
- main dose-limiting toxicity (DLT) ([7]; i.v. once weekly): mucositis
- maximum tolerated dose (MTD) ([7]; i.v. over 30 min every 7 days, flat dosing): 75 mg
- treatment discontinuations thought to be possibly, probably or definitely related to the study drug ([7]; of six patients with treatment discontinued): 4 patients
- factor of increase in odds of more severe mucositis per 10 mg increase in dose ([7]; proportional odds model, univariate, 95% CI 1.21–2.07): 1.58
